The source of these data is the NIST ThermoML archive (doi:10.1021/acs.jced.7b00008).

Numbers after ± are expanded uncertainties.

The conditions of the data set: Liquid, Ebulliometric method (Recirculating still).

For orientation: vapor or sublimation pressure means the pressure of vapour in equilibrium with the condensed phase. Consider `O=C1CCC(=O)O1` [succinic anhydride], for which the “vapor or sublimation pressure” value is recorded as 20 ± 0.6 kPa (475.01 K), 30 ± 0.6 kPa (488.81 K) and 40 ± 0.6 kPa (499.14 K).

Turning to `O=C1CCCO1` [γ-butyrolactone], the “vapor or sublimation pressure” value worked out at 20 ± 0.6 kPa (420.11 K), 30 ± 0.6 kPa (432.89 K) and 40 ± 0.6 kPa (442.63 K).
